Assay results as given in patent US20120214862A1, “MODULATION OF FACTOR 7 EXPRESSION” (ISIS Pharmaceuticals, Inc., priority 2009, published 2012).
Read-outs that look alike come from different tables or passages of the source.

How the values were obtained:
platelet factor-4 (PF-4) = test: FeCl3 induced venous thrombosis (VT) model, real-time RT-PCR quantification of PF-4 in vena cava as measure of thrombus formation; type: in vivo, mouse; details: for PF-4 (percent of PF-4 mRNA as compared to the PBS + FeCl3 control) / PF-4 (percentage compared to PBS controls): BALB/c mice; for PF-4 (percent of PF-4 mRNA as compared to the PBS + FeCl3 control): no ISIS 403102; for PF-4 (percentage compared to PBS controls): vena cava
Protocol: (§1) Two control groups of BALB/c mice were treated with PBS, administered subcutaneously twice a week for 3 weeks. Thrombus formation was induced with FeCl3 in half of the mice while the rest of the mice were assayed for tail bleeding. […] Thrombus formation was induced with FeCl3 in all groups of the VT mice except the first control group.
(§2) In mice undergoing FeCl3 treatment, thrombus formation was induced by applying a piece of filter paper (2×4 min) pre-saturated with 10% FeCl3 solution directly on the vena cava. After 3 minutes of exposure, the filter paper was removed. Thirty minutes after the filter paper application, a fixed length of the vein containing the thrombus was dissected out for platelet analysis. Liver was collected for RNA analysis.
(§3) Real-time RT-PCR quantification of platelet factor-4 (PF-4) was used to quantify platelets in the vena cava as a measure of thrombus formation.
(§4) Six additional groups of BALB/c mice was treated with 0.5 mg/kg, 1 mg/kg, 2 mg·kg, 3 mg/kg, 4 mg/kg, or 5 mg/kg of warfarin, administered intraperioneally daily for 6 days. Four hours after the last dose of warfarin, mice were sacrificed. A control group of BALB/c mice were treated with PBS, administered subcutaneously twice a week for 3 weeks. Two days after the last dose of PBS, mice were anesthetized with 150 mg/kg ketamine mixed with 10 mg/kg xylazine administered by intraperitoneal injection. Thrombus formation was induced with FeCl3 in groups of mice except the first control group.
as §2, with “mm)” for “min)”
as §3
Thrombus formation was induced with FeCl3 in all of the mice except the first […] control groups. All mice were anesthetized with 150 mg/kg of ketamine mixed with 10 mg/kg of xylazine administered by intraperitoneal injection.
After 3 minutes of exposure, the filter paper was removed. Thirty minutes after the filter paper application, a fixed length of the vein containing the thrombus was dissected out for platelet analysis.
Real-time PCR quantification of PF-4 was used to quantify platelets in the vena cava as a measure of thrombus formation. […] Data is presented as percent of PF-4 mRNA as compared to the PBS+ FeCl3 control, […]

murine Factor 7 mRNA = test: Liver Factor 7 mRNA by real-time RT-PCR in treated BALB/c mice; type: in vivo, mouse
Protocol: A control group of mice was injected subcutaneously with PBS twice a week for 3 weeks. After the treatment period, whole liver was collected for RNA and protein analysis, and plasma was collected for clotting analysis (PT/aPTT).
(§5) RNA was extracted from liver tissue for real-time RT-PCR analysis of Factor 7.
A control group of 3 mice was injected with a single dose of PBS, and mice in this group were sacrificed on day 1. Mice in all groups were sacrificed by cervical dislocation following anesthesia with 150 mg/kg ketamine mixed with 10 mg/kg xylazine administered by intraperitoneal injection. Liver was harvested for RNA analysis and plasma was collected for clotting analysis (PT and aPTT).
as §5
Mice from the first group were sacrificed on days 1 and 3 after the single dose. […] A control group of 3 mice was injected with PBS in a single dose. Mice from the control group were sacrificed 1 day later. Mice in all groups were sacrificed by cervical dislocation following anesthesia with 150 mg/kg ketamine mixed with 10 mg/kg xylazine administered by intraperitoneal injection. Liver was harvested for RNA analysis and plasma was collected for clotting analysis (PT and aPTT) for mice in all groups.
RNA was extracted from liver tissue for quantitative RT-PCR analysis of Factor 7.
as §1, §5
as §4, with “A fifth group” for “Six additional groups”, “with” for “with 0.5 mg/kg, 1 mg/kg, 2 mg·kg,”, “3” for “3 mg/kg, 4 mg/kg, or 5”

BALB/c mice [1] = test: Tail bleeding assay; details: for Blood: BALB/c mice, blood collected over 40 minutes, PBS 0.06
BALB/c mice [2] = details: mouse, in vivo; for Blood: BALB/c, 30 min

COC(=O)[C@H](c1ccccc1Cl)N1CCc2sccc2C1 [Plavix, clopidogrel, reference compound]
PF-4 (percent of PF-4 mRNA as compared to the PBS + FeCl3 control) (platelet factor-4 (PF-4); FeCl3, Plavix 6.25 mg/kg): 61%
PF-4 (percent of PF-4 mRNA as compared to the PBS + FeCl3 control) (platelet factor-4 (PF-4); FeCl3, Plavix 12.50 mg/kg): 24%
PF-4 (percent of PF-4 mRNA as compared to the PBS + FeCl3 control) (platelet factor-4 (PF-4); FeCl3, Plavix 25.00 mg/kg): 13%
PF-4 (percent of PF-4 mRNA as compared to the PBS + FeCl3 control) (platelet factor-4 (PF-4); FeCl3, Plavix 50.00 mg/kg): 6%
PF-4 in comparison to the PBS control (platelet factor-4 (PF-4); Example 22, Plavix 6.25-50.00 mg/kg, three doses over two days): reduction of PF-4

CC(=O)CC(c1ccccc1)c1c(O)c2ccccc2oc1=O (stereo not drawn) [warfarin, reference compound]
reduction of Factor 7 mRNA as compared to the PBS control (murine Factor 7 mRNA; Example 15, 3 mg/kg intraperitoneally daily for 6 days): did not result in significant reduction
% inhibition of Factor 7 mRNA (murine Factor 7 mRNA; liver, BALB/c mice, FeCl3 VT model, 3 mg/kg i.p. daily for 6 days, relative to PBS control): 10%
PF-4 in comparison to the PBS control (platelet factor-4 (PF-4); Example 16, dose of 1 mg/kg and higher, intraperitoneally daily for 6 days): reduction of PF-4
PF-4 (percentage compared to PBS controls) (platelet factor-4 (PF-4); FeCl3, 0.5 mg/kg i.p. daily for 6 days): 165%
PF-4 (percentage compared to PBS controls) (platelet factor-4 (PF-4); FeCl3, 1 mg/kg i.p. daily for 6 days): 63%
PF-4 (percentage compared to PBS controls) (platelet factor-4 (PF-4); FeCl3, 2 mg/kg i.p. daily for 6 days): 47%
PF-4 (percentage compared to PBS controls) (platelet factor-4 (PF-4); FeCl3, 3 mg/kg i.p. daily for 6 days): 35%
PF-4 (percentage compared to PBS controls) (platelet factor-4 (PF-4); FeCl3, 4 mg/kg i.p. daily for 6 days): 22%
PF-4 (percentage compared to PBS controls) (platelet factor-4 (PF-4); FeCl3, 5 mg/kg i.p. daily for 6 days): 0%
Blood (BALB/c mice [1]; 0.5 mg/kg i.p. daily for 6 days): 0.16 g
Blood (BALB/c mice [1]; 1 mg/kg i.p. daily for 6 days): 0.28 g
Blood (BALB/c mice [1]; 2 mg/kg i.p. daily for 6 days): 0.58 g
Blood (BALB/c mice [1]; 3 mg/kg i.p. daily for 6 days): 0.78 g
Blood (BALB/c mice [1]; 4 mg/kg i.p. daily for 6 days): 0.66 g
Blood (BALB/c mice [1]; 5 mg/kg i.p. daily for 6 days): 0.93 g
bleeding as compared to PBS control mice (BALB/c mice [1]; Example 17, 0.5-5 mg/kg intraperitoneally daily for 6 days): did increase bleeding

COc1ccc(-n2nc(C(N)=O)c3c2C(=O)N(c2ccc(N4CCCCC4=O)cc2)CC3)cc1 [Apixaban, reference compound]
Blood (BALB/c mice [2]; ip, 5 mg/kg): 0.22 g
Blood (BALB/c mice [2]; ip, 10 mg/kg): 0.58 g
Blood (BALB/c mice [2]; sc, 10 mg/kg): 0.04 g
bleeding compared to PBS treated mice (BALB/c mice [2]; ip, 5 mg/kg): same amount of bleeding as PBS treated mice
bleeding compared to PBS treated mice (BALB/c mice [2]; ip, 10 mg/kg): increased bleeding
bleeding compared to PBS treated mice (BALB/c mice [2]; sc, 10 mg/kg): less bleeding than PBS mice
